From ChEMBL document CHEMBL6182898, “Design, synthesis and bioevaluation of novel hydrazide derivatives as enhancers of immunotherapy and DNA-damage response in antitumor therapy” (Eur J Med Chem, 2025)
pIC50: −log10 of the molar value.

Key:
4T1 [1] = experiment: Antiproliferative activity against mouse 4T1 cells incubated for 72 hrs by MTT assay; assay type: functional, cell-based; details: 4T1, 72 h
HCT-116 [2] = experiment: cells; assay type: functional; details: Homo sapiens, time 72 hrs
[3] = Antiproliferative activity against human HK-2 cells incubated for 72 hrs by MTT assay
[4] = biological target: T1, Protein deacetylase HDAC6 (Homo sapiens, UniProt Q9UBN7); experiment: Inhibition of HDAC6 (unknown origin)
T1 sequence (Q9UBN7 whole entry): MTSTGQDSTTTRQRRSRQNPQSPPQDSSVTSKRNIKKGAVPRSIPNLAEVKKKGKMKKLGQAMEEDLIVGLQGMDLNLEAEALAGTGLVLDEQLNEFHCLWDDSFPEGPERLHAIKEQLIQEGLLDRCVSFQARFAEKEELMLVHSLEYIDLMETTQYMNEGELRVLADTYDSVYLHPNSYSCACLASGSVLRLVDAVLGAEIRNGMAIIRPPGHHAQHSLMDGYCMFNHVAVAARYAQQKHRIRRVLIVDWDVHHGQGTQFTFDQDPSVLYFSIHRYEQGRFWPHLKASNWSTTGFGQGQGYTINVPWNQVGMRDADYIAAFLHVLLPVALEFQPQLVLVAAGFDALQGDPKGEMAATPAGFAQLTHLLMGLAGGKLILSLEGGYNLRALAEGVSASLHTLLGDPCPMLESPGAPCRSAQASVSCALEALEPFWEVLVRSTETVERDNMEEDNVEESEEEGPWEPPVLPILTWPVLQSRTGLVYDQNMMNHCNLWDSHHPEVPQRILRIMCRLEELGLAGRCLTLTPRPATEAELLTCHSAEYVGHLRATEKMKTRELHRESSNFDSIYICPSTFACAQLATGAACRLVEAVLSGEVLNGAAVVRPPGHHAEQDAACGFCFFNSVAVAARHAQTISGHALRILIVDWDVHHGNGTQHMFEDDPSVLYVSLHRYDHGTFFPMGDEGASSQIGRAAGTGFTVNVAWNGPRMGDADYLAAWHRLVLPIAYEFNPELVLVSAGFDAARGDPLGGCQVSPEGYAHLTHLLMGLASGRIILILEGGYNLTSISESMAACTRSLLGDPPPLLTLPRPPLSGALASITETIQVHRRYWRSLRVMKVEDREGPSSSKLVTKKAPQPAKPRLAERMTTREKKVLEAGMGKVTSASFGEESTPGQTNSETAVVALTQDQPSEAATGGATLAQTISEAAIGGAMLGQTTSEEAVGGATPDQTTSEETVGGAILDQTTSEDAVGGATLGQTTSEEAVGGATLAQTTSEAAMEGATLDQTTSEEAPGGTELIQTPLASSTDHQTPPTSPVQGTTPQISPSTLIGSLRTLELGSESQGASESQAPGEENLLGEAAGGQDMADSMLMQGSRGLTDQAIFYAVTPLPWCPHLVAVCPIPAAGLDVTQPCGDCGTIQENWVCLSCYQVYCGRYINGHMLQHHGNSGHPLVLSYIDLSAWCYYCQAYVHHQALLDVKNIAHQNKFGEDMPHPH

K562 [5] = experiment: Antiproliferative activity against human K562 cells incubated for 72 hrs by CCK8 assay; assay type: functional, cell-based; details: K562, 72 h
Histone deacetylase 8 = biological target: T2, Histone deacetylase 8 (Homo sapiens, UniProt Q9BY41); experiment: Inhibition of HDAC8 (unknown origin)
T2 sequence (Q9BY41 whole entry): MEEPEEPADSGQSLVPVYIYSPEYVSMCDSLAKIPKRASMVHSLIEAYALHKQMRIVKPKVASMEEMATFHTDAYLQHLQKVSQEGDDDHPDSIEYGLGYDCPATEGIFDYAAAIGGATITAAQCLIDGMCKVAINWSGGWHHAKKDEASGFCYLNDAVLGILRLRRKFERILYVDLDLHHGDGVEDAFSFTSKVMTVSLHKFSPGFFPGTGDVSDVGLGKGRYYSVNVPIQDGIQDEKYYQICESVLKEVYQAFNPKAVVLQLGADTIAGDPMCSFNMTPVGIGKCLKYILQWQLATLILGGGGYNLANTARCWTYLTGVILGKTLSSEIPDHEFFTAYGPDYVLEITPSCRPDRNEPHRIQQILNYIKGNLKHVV

B16-F10 [6] = experiment: cells; assay type: functional; details: Mus musculus, time 72 hrs
SK-OV-3 [7] = experiment: Antiproliferative activity against human SK-OV-3 cells incubated for 72 hrs by MTT assay; assay type: functional, cell-based; details: SK-OV-3, 72 h
B16-F10 [8] = experiment: Antiproliferative activity against mouse B16-F10 cells incubated for 72 hrs by MTT assay; assay type: functional, cell-based; details: B16-F10, 72 h
Histone deacetylase 1 = Histone deacetylase 1 (Homo sapiens, UniProt Q13547); experiment: Inhibition of HDAC1 (unknown origin)
SK-OV-3 [9] = experiment: cells; assay type: functional; details: Homo sapiens, time 72 hrs
Histone deacetylase 3 = Histone deacetylase 3 (Homo sapiens, UniProt O15379); experiment: Inhibition of HDAC3 (unknown origin)
4T1 [10] = experiment: cells; assay type: functional; details: Mus musculus, time 72 hrs
K562 [11] = experiment: cells; assay type: functional; details: Homo sapiens, time 72 hrs
HCT-116 [12] = experiment: Antiproliferative activity against human HCT-116 cells incubated for 72 hrs by MTT assay; assay type: functional, cell-based; details: HCT-116, 72 h

Histone deacetylase 3, sequence (O15379 whole entry): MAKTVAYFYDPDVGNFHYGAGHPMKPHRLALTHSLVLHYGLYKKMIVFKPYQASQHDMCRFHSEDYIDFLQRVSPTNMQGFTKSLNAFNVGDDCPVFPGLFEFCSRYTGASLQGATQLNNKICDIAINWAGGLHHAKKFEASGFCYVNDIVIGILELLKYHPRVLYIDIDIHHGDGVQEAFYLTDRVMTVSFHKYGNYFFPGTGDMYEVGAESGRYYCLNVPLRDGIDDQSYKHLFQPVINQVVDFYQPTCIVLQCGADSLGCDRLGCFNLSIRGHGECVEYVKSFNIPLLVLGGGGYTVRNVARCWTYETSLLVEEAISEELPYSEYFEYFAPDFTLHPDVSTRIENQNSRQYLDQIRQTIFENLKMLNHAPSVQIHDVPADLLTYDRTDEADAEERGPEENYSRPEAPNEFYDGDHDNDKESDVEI
Histone deacetylase 1, sequence (Q13547 whole entry): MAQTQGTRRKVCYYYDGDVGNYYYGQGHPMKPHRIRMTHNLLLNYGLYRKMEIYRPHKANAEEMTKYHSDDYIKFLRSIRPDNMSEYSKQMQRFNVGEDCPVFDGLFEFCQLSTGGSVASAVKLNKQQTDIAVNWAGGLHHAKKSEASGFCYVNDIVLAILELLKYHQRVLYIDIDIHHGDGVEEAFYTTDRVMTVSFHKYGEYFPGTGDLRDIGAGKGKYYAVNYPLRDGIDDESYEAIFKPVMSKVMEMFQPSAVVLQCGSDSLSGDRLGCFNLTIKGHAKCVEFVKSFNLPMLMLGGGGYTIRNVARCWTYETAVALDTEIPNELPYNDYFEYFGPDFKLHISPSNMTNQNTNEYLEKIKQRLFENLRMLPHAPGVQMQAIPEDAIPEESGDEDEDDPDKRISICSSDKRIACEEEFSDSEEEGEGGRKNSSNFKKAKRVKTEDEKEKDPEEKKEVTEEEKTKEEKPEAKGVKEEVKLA

Row | SMILES | pIC50 (4T1 [1]) | inhibition at 10 µM (HCT-116 [2]) [%] | IC50 at 72 h [3] [µM] | pIC50 [4] | pIC50 (K562 [5]) | pIC50 (Histone deacetylase 8) | inhibition at 10 µM (B16-F10 [6]) [%] | pIC50 (SK-OV-3 [7]) | pIC50 (B16-F10 [8]) | pIC50 (Histone deacetylase 1) | inhibition at 10 µM (SK-OV-3 [9]) [%] | pIC50 (Histone deacetylase 3) | inhibition at 10 µM (4T1 [10]) [%] | inhibition at 10 µM (K562 [11]) [%] | pIC50 (HCT-116 [12])
1 | CCCNNC(=O)CCCCCCNC(=O)c1cnc(-c2ccc(Br)cc2)s1 | 4.84 | 59.3 | 13.9 | < 5.00 | 5.09 | < 5.00 | 50.7 | 4.89 | 5.27 | < 5.30 | 60.8 | 5.46 | 53 | < 50 | 6.10
2 | CCCNNC(=O)CCCCCCNC(=O)c1cnc(-c2ccc(Oc3ccccc3)cc2)s1 | 4.93 | 73.1 | 14.1 | < 5.00 | 5.38 | < 5.00 | 58 | 5.06 | 4.83 | < 5.30 | 76 | 5.73 | 40.8 | < 50 | 5.97
3 | CCCNNC(=O)CCCCCNC(=O)c1cnc(-c2ccc(OC(F)(F)F)cc2)s1 | – | 62.9 | – | – | – | – | < 50 | – | – | – | < 50 | – | 31.9 | 69.5 | –
4 | CCCNNC(=O)CCCCCCNC(=O)c1cnc(-c2ccc3c(c2)OCO3)s1 | – | 68.4 | – | – | – | – | 59.6 | – | – | – | 86.8 | – | 22.1 | 68.9 | –
5 | CCCNNC(=O)CCCCCNC(=O)c1cnc(-c2ccc(Cl)cc2)s1 | – | 58.2 | – | – | – | – | < 50 | – | – | – | < 50 | – | 21.5 | < 50 | –
6 | Nc1ccccc1NC(=O)c1ccc(CNC(=O)OCc2cccnc2)cc1 [ENTINOSTAT] | 5.05 | 94.6 | 13.5 | – | 6.10 | – | 46.2 | 5.08 | 4.96 | – | 50.2 | – | 43.4 | 70.5 | 6.04
7 | CC(C)(C)OC(=O)Nc1ccc(-c2ncc(C(=O)NCCCCCCC(=O)NNCC3CC3)s2)cc1 | – | 85.8 | – | – | – | – | 52.1 | – | – | – | 57.5 | – | 21.4 | 71.3 | –
8 | CCCNNC(=O)CCCCCNC(=O)c1cnc(-c2ccc(Oc3ccccc3)cc2)s1 | 4.98 | 82.6 | 10.8 | < 5.00 | 5.11 | < 5.00 | < 50 | 5.35 | 4.96 | < 5.30 | 68.6 | 5.80 | 33.8 | 73.1 | 5.47
9 | CCCNNC(=O)CCCCCCNC(=O)c1cnc(-c2ccc(OC(F)(F)F)c(OC(F)(F)F)c2)s1 | – | 88.8 | – | – | – | – | 54.5 | – | – | – | 62.7 | – | 20.5 | 69.5 | –
10 | CCCNNC(=O)CCCCCNC(=O)c1cnc(-c2ccc(C(F)(F)F)cc2)s1 | – | < 50 | – | – | – | – | 59.6 | – | – | – | 70.9 | – | 38.9 | < 50 | –
11 | CCCNNC(=O)CCCCCNC(=O)c1cnc(-c2cccc(OC)c2)s1 | – | < 50 | – | – | – | – | < 50 | – | – | – | < 50 | – | < 20 | < 50 | –
12 | CCCNNC(=O)CCCCCCNC(=O)c1cnc(-c2c[nH]c3ccccc23)s1 | – | 72.7 | – | – | – | – | < 50 | – | – | – | 53 | – | 21.8 | 67.7 | –
13 | CCCNNC(=O)CCCCCNC(=O)c1cnc(-c2cccc3ccccc23)s1 | – | 60.6 | – | – | – | – | < 50 | – | – | – | < 50 | – | < 20 | 67.5 | –
14 | CCCNNC(=O)CCCCCNC(=O)c1cnc(-c2ccc3ccccc3c2)s1 | – | 58.5 | – | – | – | – | < 50 | – | – | – | < 50 | – | < 20 | 59.8 | –
15 | CCCNNC(=O)CCCCCNC(=O)c1cnc(-c2ccc(NC(=O)OC(C)(C)C)cc2)s1 | – | 53.6 | – | – | – | – | < 50 | – | – | – | < 50 | – | 27.1 | 68.9 | –
16 | CC(C)=CCCC(C)CNNC(=O)CCCCCCNC(=O)c1cnc(-c2ccc(NC(=O)OC(C)(C)C)cc2)s1 (stereo unspecified) | – | 58.7 | – | – | – | – | 66.8 | – | – | – | 57.2 | – | 40.5 | 53.5 | –
17 | CC(C)CNNC(=O)CCCCCCNC(=O)c1cnc(-c2ccc(NC(=O)OC(C)(C)C)cc2)s1 | – | 59 | – | – | – | – | 51 | – | – | – | 39.2 | – | 23.9 | 55.9 | –
18 | CCCNNC(=O)CCCCCNC(=O)c1cnc(-c2ccc(Cl)cc2Cl)s1 | – | 54 | – | – | – | – | < 50 | – | – | – | < 50 | – | < 20 | < 50 | –
19 | CCCNNC(=O)CCCCCCNC(=O)c1cnc(-c2ccc3[nH]ccc3c2)s1 | 5.01 | – | 10.1 | < 5.00 | 5.84 | < 5.00 | – | 5.30 | 5.03 | 5.80 | – | 6.38 | – | – | 5.09
20 | CCCNNC(=O)c1ccc(NC(=O)c2cnc(-c3ccc(F)cc3)s2)cc1 | – | < 50 | – | – | – | – | < 50 | – | – | – | < 50 | – | < 20 | 69.6 | –
21 | CCCNNC(=O)CCCCCNC(=O)c1cnc(-c2ccc(F)cc2F)s1 | – | 62.9 | – | – | – | – | < 50 | – | – | – | < 50 | – | 21.7 | 59.8 | –
22 | C=CCNNC(=O)CCCCCCNC(=O)c1cnc(-c2ccc(NC(=O)OC(C)(C)C)cc2)s1 | – | 58.2 | – | – | – | – | 53.5 | – | – | – | 64.6 | – | 61.2 | 63.7 | –
23 | CCCNNC(=O)CCCCCNC(=O)c1cnc(-c2c[nH]c3ccccc23)s1 | – | 36.5 | – | – | – | – | < 50 | – | – | – | < 50 | – | < 20 | < 50 | –
24 | CCCCCCCCCNNC(=O)CCCCCCNC(=O)c1cnc(-c2ccc(NC(=O)OC(C)(C)C)cc2)s1 | – | 59.7 | – | – | – | – | < 50 | – | – | – | 45 | – | < 20 | 55.2 | –
25 | CCCNNC(=O)CCCCCCNC(=O)c1cnc(-c2cccc(C)c2)s1 | – | 61.7 | – | – | – | – | < 50 | – | – | – | < 50 | – | < 20 | < 50 | –
